Test results: ChEMBL document CHEMBL1201862, “PubChem BioAssay data set” (2004)
Several values for one entry are separate records, joined by “and”; a condition that tells them apart may be missing. Identical values can stand only once.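 Method: 48-hour compound exposure of cells in 96-well plates, five concentrations, linear interpolation of endpoints. GI50 marks 50% less growth.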 Activity calls are given as the source filed them. No stated cut-off is given here; in the data, active = GI50 up to about 1.1 µM and inactive = higher.

Assays:
Test in all cases: NCI anticancer screen, dose series, 48 h
[1] = test system: SNB-19
[2] = test system: SK-OV-3
[3] = test system: SF-295
[4] = test system: HL-60
[5] = test system: Malme-3M
[6] = test system: HCC 2998
[7] = test system: PC-3
[8] = test system: KM12
[9] = test system: HOP-92
[10] = test system: SK-MEL-2
[11] = test system: OVCAR-8
[12] = test system: NCI-H226
[13] = test system: DU-145
[14] = test system: IGROV-1
[15] = test system: MDA-N
[16] = test system: SF-268
[17] = test system: A498
[18] = test system: U-251
[19] = test system: T47D
[20] = test system: HCT-15
[21] = test system: NCI-H460
[22] = test system: SK-MEL-5
[23] = test system: TK-10
[24] = test system: UACC-62
[25] = test system: SN12C
[26] = test system: SF-539
[27] = test system: K562
[28] = test system: MDA-MB-231
[29] = test system: CAKI-1
[30] = test system: HT-29
[31] = test system: EKVX
[32] = test system: Hs-578T
[33] = test system: UO-31
[34] = test system: A549
[35] = test system: SR
[36] = test system: NCI-H522
[37] = test system: MOLT-4
[38] = test system: SK-MEL-28
[39] = test system: HCT-116
[40] = test system: RXF 393
[41] = test system: CCRF-CEM
[42] = test system: HOP-62
[43] = test system: OVCAR-5
[44] = test system: SNB-75
[45] = test system: MCF7
[46] = test system: RPMI-8226
[47] = test system: M14
[48] = test system: COLO 205
[49] = test system: LOX IMVI
[50] = test system: OVCAR-4
[51] = test system: NCI/ADR-RES
[52] = test system: NCI-H23
[53] = test system: ACHN
[54] = test system: MDA-MB-435
[55] = test system: SW-620
[56] = test system: OVCAR-3

Structure (SMILES): O=C1C=C2C=CC3CC2(O1)C1CCCCN31 (stereo not drawn)
- GI50 [1]: 28.3 µM (inactive) and 32.4 µM (inactive) and 18.7 µM (inactive)
- GI50 [2]: 20.5 µM (inactive) and 33.7 µM (inactive) and 30.6 µM (inactive)
- GI50 [3]: 23.3 µM (inactive) and 35.3 µM (inactive) and 45.2 µM (inactive)
- GI50 [4]: 17.2 µM (inactive)
- GI50 [5]: 14.9 µM (inactive)
- GI50 [6]: 16.8 µM (inactive) and 20.3 µM (inactive) and 27.3 µM (inactive)
- GI50 [7]: 21.5 µM (inactive) and 40.4 µM (inactive) and 25.1 µM (inactive)
- GI50 [8]: 19.2 µM (inactive) and 14.8 µM (inactive) and 12.5 µM (inactive)
- GI50 [9]: 12.7 µM (inactive) and 18.3 µM (inactive) and 22.8 µM (inactive)
- GI50 [10]: 28.1 µM (inactive) and 16.8 µM (inactive) and 27.9 µM (inactive)
- GI50 [11]: 17.3 µM (inactive) and 28.3 µM (inactive) and 19.1 µM (inactive)

Structure (SMILES): COc1ccc(N2C(=O)C(=O)C3(CCCCC3)C2=O)c2ccccc12
- GI50 [1]: > 10 µM (inactive)
- GI50 [2]: > 10 µM (inactive)
- GI50 [12]: > 10 µM (inactive)
- GI50 [3]: > 10 µM (inactive)
- GI50 [13]: > 10 µM (inactive)
- GI50 [14]: > 10 µM (inactive)
- GI50 [15]: > 10 µM (inactive)
- GI50 [16]: > 10 µM (inactive)
- GI50 [17]: > 10 µM (inactive)
- GI50 [4]: > 10 µM (inactive)
- GI50 [18]: > 10 µM (inactive)
- GI50 [19]: > 10 µM (inactive)
- GI50 [20]: > 10 µM
- GI50 [21]: > 10 µM (inactive)
- GI50 [5]: > 10 µM (inactive)
- GI50 [22]: > 10 µM (inactive)
- GI50 [23]: > 10 µM (inactive)
- GI50 [6]: > 10 µM (inactive)
- GI50 [24]: > 10 µM (inactive)
- GI50 [25]: > 10 µM (inactive)
- GI50 [26]: > 10 µM (inactive)
- GI50 [27]: > 10 µM (inactive)
- GI50 [28]: > 10 µM (inactive)
- GI50 [29]: > 10 µM (inactive)
- GI50 [7]: > 10 µM (inactive)
- GI50 [30]: > 10 µM (inactive)
- GI50 [31]: > 10 µM (inactive)
- GI50 [32]: > 10 µM (inactive)
- GI50 [33]: 9.77 µM (inactive)
- GI50 [34]: > 10 µM (inactive)
- GI50 [35]: > 10 µM (inactive)
- GI50 [8]: > 10 µM (inactive)
- GI50 [36]: > 10 µM (inactive)
- GI50 [37]: > 10 µM (inactive)
- GI50 [38]: > 10 µM (inactive)
- GI50 [39]: > 10 µM (inactive)
- GI50 [40]: > 10 µM (inactive)
- GI50 [41]: > 10 µM (inactive)
- GI50 [42]: > 10 µM (inactive)
- GI50 [43]: > 10 µM (inactive)
- GI50 [44]: > 10 µM (inactive)
- GI50 [45]: > 10 µM (inactive)
- GI50 [46]: > 10 µM (inactive)
- GI50 [47]: > 10 µM (inactive)
- GI50 [48]: > 10 µM (inactive)
- GI50 [49]: > 10 µM (inactive)
- GI50 [50]: > 10 µM (inactive)
- GI50 [51]: > 10 µM (inactive)
- GI50 [10]: > 10 µM (inactive)
- GI50 [11]: > 10 µM (inactive)
- GI50 [52]: > 10 µM (inactive)
- GI50 [53]: > 10 µM (inactive)
- GI50 [54]: > 10 µM (inactive)
- GI50 [55]: > 10 µM (inactive)

Structure (SMILES): CSc1ccc(C(=C=C=C(c2ccc(SC)s2)c2ccc(SC)s2)c2ccc(SC)s2)s1
- GI50 [1]: > 10 µM (inactive)
- GI50 [12]: > 10 µM (inactive)
- GI50 [3]: > 10 µM (inactive)
- GI50 [13]: > 10 µM (inactive)
- GI50 [14]: > 10 µM (inactive)
- GI50 [15]: > 10 µM (inactive)
- GI50 [16]: > 10 µM (inactive)
- GI50 [17]: > 10 µM (inactive)
- GI50 [18]: > 10 µM (inactive)
- GI50 [20]: > 10 µM
- GI50 [22]: > 10 µM (inactive)
- GI50 [23]: > 10 µM (inactive)
- GI50 [25]: > 10 µM (inactive)
- GI50 [26]: > 10 µM (inactive)
- GI50 [28]: > 10 µM (inactive)
- GI50 [29]: > 10 µM (inactive)
- GI50 [7]: > 10 µM (inactive)
- GI50 [30]: > 10 µM (inactive)
- GI50 [31]: > 10 µM (inactive)
- GI50 [33]: > 10 µM (inactive)
- GI50 [34]: > 10 µM (inactive)
- GI50 [8]: > 10 µM (inactive)
- GI50 [9]: > 10 µM (inactive)
- GI50 [38]: > 10 µM (inactive)
- GI50 [39]: > 10 µM (inactive)
- GI50 [40]: > 10 µM (inactive)
- GI50 [43]: > 10 µM (inactive)
- GI50 [44]: > 10 µM (inactive)
- GI50 [47]: > 10 µM (inactive)
- GI50 [48]: > 10 µM (inactive)
- GI50 [50]: > 10 µM (inactive)
- GI50 [51]: > 10 µM (inactive)
- GI50 [56]: > 10 µM (inactive)
- GI50 [11]: > 10 µM (inactive)
- GI50 [52]: > 10 µM (inactive)
- GI50 [53]: > 10 µM (inactive)
- GI50 [54]: > 10 µM (inactive)
- GI50 [55]: > 10 µM (inactive)
